Calls of active or inactive are those of the source. The rule behind the calls is not given here.
Legend:
[1] = (§1) Drug recovery in Homo sapiens (human) Caco2 cells at 100 uM by HPLC-UV analysis; assay type: ADME, cell-based, Caco-2; settings: Caco-2, read-out: Drug recovery
Homo sapiens = species on record: Homo sapiens; test: Non-competitive inhibition of Homo sapiens (human) P-glycoprotein ATPase activity at 200 uM after 40 min by luminescence analysis
[2] = Apparent permeability from apical to basolateral side of Homo sapiens (human) Caco2 cells at 100 uM by HPLC-UV analysis; assay type: ADME, cell-based; settings: Caco-2
[3] = target: T1, ATP-dependent translocase ABCB1 (Homo sapiens, UniProt P08183); test: Inhibition of P-glycoprotein in doxorubicin-resistant Homo sapiens (human) K562 cells overexpressing P-gp assessed as increase in intracellular Rh123 accumulation at 10 to 20 uM after 1 hr by flow cytometric analysis; assay type: cell-based; settings: k562, 1 h
T1 sequence (P08183 whole entry): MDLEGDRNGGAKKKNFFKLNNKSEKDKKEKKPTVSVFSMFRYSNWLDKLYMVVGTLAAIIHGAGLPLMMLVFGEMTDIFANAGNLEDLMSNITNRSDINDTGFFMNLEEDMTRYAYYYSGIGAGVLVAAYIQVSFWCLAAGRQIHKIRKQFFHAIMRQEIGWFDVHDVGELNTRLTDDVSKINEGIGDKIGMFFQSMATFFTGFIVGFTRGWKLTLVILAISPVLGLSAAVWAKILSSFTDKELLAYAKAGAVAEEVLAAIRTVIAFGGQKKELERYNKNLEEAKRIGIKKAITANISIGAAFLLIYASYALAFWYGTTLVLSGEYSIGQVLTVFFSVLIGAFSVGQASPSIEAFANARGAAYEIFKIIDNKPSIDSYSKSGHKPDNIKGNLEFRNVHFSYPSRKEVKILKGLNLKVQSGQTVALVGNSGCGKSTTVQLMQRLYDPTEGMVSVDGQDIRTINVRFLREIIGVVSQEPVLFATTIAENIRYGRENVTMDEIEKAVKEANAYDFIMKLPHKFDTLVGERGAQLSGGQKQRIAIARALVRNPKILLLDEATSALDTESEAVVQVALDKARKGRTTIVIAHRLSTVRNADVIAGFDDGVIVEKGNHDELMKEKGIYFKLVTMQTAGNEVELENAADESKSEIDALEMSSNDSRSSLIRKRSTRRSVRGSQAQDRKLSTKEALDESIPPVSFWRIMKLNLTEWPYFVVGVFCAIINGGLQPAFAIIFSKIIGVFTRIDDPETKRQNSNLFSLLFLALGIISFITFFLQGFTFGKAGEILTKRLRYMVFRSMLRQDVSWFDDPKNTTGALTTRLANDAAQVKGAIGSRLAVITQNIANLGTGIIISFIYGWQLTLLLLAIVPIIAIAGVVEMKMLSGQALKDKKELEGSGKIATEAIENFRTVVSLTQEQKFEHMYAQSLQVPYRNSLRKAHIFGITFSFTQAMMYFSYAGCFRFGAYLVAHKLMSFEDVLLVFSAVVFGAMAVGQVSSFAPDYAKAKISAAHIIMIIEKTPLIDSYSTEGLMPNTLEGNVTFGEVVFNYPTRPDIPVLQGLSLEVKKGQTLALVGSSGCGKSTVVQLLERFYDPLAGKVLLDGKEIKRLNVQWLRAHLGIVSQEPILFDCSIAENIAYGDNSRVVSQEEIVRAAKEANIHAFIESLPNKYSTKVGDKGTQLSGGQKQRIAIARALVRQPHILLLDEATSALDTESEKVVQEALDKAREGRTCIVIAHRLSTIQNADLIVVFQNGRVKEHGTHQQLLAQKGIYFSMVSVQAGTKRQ

[4] = target: T1, ATP-dependent translocase ABCB1; test: Activation of P-glycoprotein in doxorubicin-resistant Homo sapiens (human) K562 cells overexpressing P-gp assessed as decrease in intracellular Rh123 accumulation at 10 to 20 uM after 1 hr by flow cytometric analysis; assay type: cell-based; settings: k562, 1 h
Caco-2 = test: as §1; assay type: ADME, cell-based; settings: caco-2, 100 µM

Row | Compound | recovery at 100 µM [1] [%] | inhibition (Homo sapiens) | Papp A→B at 100 µM [2] [×10⁻⁶ cm/s] | inhibition (INH) [3] | Activity [4] | Drug recovery (Caco-2) [%]
1 | CC1(C)CCc2cc3c(=O)c4ccccc4oc3c(O)c2O1 | 29.4 | Active | 14.2 | Active | – | –
2 | O=c1c2ccccc2oc2ccc(O)c(O)c12 | 40.7 | – | 15.2 | – | Active | –
3 | COc1ccc(CCN(C)CCCC(C#N)(c2ccc(OC)c(OC)c2)C(C)C)cc1OC (stereo not given) | – | – | – | Active | – | –
4 | O=c1c2ccccc2oc2c(O)c(O)ccc12 [3,4-DIHYDROXYXANTHONE] | 53.6 | – | 19.4 | – | Active | –
5 | COc1cc(C2Oc3ccc4c(=O)c5ccccc5oc4c3OC2CO)ccc1O (stereo not given) | – | Active | 14.4 | Active | – | 164.7

Source: ChEMBL document CHEMBL3045760, “Bioactive xanthones with effect on P-glycoprotein and prediction of intestinal absorption” (Med Chem Res, 2013)
